Laboratory results from patent publication US20240208992A1, “MACROCYCLES AS CFTR MODULATORS” (Idorsia Pharmaceuticals Ltd, priority 2021, published 2024).

Target: human F508del-CFTR (Homo sapiens, UniProt P13569, DEL508-508)
Assay: F508del-CFTR cell surface expression (corrector activity), DiscoveRx ß-galactosidase complementation chemiluminescence assay in recombinant U2OS cell line;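 further: U2OS cells co-expressing ProLink-tagged F508del-CFTR and a membrane-anchored enzyme acceptor, where more surface CFTR restores β-galactosidase activity measured by chemiluminescence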
Details: for EC50: EC50, F508del-CFTR cell surface expression, U2OS cells, 16h compound incubation, geomean values; for Emax: U2OS, in relation to Emax of corrector lumacaftor (=100%), arithmetic mean values

human F508del-CFTR, sequence (P13569 with tags, fused parts or gaps DEL508-508): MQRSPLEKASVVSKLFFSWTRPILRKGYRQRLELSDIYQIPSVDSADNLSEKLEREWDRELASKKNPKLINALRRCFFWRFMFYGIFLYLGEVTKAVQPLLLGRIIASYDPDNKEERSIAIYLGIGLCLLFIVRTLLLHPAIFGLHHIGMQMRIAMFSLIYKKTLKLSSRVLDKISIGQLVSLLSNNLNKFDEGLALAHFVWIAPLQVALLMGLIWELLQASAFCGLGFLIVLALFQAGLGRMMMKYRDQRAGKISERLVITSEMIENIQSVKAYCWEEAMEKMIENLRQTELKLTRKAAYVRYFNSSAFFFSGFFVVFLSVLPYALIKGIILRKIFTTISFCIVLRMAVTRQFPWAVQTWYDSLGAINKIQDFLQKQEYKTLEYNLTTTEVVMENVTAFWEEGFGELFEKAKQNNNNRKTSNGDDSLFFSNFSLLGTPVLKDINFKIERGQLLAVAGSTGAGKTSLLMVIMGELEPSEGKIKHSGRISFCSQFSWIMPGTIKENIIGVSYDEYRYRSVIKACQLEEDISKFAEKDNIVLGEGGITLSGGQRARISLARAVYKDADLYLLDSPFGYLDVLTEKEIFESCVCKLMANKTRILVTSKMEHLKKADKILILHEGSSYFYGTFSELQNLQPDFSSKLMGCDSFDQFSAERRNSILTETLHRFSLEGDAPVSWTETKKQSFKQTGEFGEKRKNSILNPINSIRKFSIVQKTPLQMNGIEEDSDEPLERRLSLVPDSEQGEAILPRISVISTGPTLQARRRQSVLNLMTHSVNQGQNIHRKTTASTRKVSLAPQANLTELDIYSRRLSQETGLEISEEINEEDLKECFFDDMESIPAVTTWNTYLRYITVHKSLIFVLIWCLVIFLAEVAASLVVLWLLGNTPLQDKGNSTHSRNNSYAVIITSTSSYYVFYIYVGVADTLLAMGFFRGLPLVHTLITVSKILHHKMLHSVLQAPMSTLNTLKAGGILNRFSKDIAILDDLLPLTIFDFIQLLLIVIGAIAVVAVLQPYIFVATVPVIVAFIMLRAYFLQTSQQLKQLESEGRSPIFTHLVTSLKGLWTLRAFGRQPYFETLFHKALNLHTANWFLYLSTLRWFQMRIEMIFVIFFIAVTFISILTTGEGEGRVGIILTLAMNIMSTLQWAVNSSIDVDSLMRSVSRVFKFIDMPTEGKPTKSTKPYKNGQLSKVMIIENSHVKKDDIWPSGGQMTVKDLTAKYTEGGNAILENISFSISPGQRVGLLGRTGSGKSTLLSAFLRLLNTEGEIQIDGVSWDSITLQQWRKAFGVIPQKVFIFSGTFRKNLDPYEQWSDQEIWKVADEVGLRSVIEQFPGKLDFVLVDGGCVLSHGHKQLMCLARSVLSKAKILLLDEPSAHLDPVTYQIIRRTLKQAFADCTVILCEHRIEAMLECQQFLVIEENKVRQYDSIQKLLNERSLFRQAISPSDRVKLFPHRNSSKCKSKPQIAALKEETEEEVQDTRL

EC50 [nM] | Emax [%] | Compound
502 | 305 | Cc1cc(CCNC(=O)[C@@H]2CC(=O)N(C)[C@@H](CC(C)C)C(=O)N(C[C@@H]3CCCC(C)(C)O3)CC(=O)N[C@H](Cc3ccccc3)COc3cnc4ccccc4c3C(=O)N2)on1 [Example 707, (3S,7S,13R)-13-benzyl-9-(((S)-6,6-dimethyltetrahydro-2H-pyran-2-yl)methyl)-7-isobutyl-6-methyl-N-(2-(3-methylisoxazol-5-yl)ethyl)-1,5,8,11-tetraoxo-1,2,3,4,5,6,7,8,9,10,11,12,13,14-tetradecahydro-[1]oxa[4,7,10,14]tetraazacycloheptadecino[17,16-c]quinoline-3-carboxamide]
874 | 195 | Cc1cc(CCNC(=O)[C@@H]2CC(=O)N(C)[C@@H](CC(C)C)C(=O)N(C)C3(CCCC3)C(=O)N[C@H](Cc3ccccc3)COc3cnc4ccccc4c3C(=O)N2)on1 [Example 708, (3′S,7′S,13′R)-13′-benzyl-7′-isobutyl-6′,9′-dimethyl-N-(2-(3-methylisoxazol-5-yl)ethyl)-1′,5′,8′,11′-tetraoxo-2′,3′,4′,5′,6′,7′,8′,9′,11′,12′,13′,14′-dodecahydro-1′H-spiro[cyclopentane-1,10′-[1]oxa[4,7,10,14]tetraazacycloheptadecino[17,16-c]quinoline]-3′-carboxamide]
47 | 284 | Cc1cc(CCNC(=O)[C@@H]2CC(=O)N(C)[C@@H](CC(C)C)C(=O)N(C)[C@H](CC3CCCCC3)C(=O)N[C@H](Cc3ccccc3)COc3cnc4ccccc4c3C(=O)N2)on1 [Example 709, (3S,7S,10R,13R)-13-benzyl-10-(cyclohexylmethyl)-7-isobutyl-6,9-dimethyl-N-(2-(3-methylisoxazol-5-yl)ethyl)-1,5,8,11-tetraoxo-1,2,3,4,5,6,7,8,9,10,11,12,13,14-tetradecahydro-[1]oxa[4,7,10,14]tetraazacycloheptadecino[17,16-c]quinoline-3-carboxamide]
149 | 280 | Cc1cc(CCNC(=O)[C@@H]2CC(=O)N(C)[C@@H](CC(C)C)C(=O)N(C)[C@H](C3CCCC3)C(=O)N[C@H](Cc3ccccc3)COc3cnc4ccccc4c3C(=O)N2)on1 [Example 710, (3S,7S,10R,13R)-13-benzyl-10-cyclopentyl-7-isobutyl-6,9-dimethyl-N-(2-(3-methylisoxazol-5-yl)ethyl)-1,5,8,11-tetraoxo-1,2,3,4,5,6,7,8,9,10,11,12,13,14-tetradecahydro-[1]oxa[4,7,10,14]tetraazacycloheptadecino[17,16-c]quinoline-3-carboxamide]
778 | 301 | Cc1cc(CCNC(=O)[C@@H]2CC(=O)N(C)[C@@H](CC(C)C)C(=O)N(C)C3(CC(F)(F)C3)C(=O)N[C@H](Cc3ccccc3)COc3cnc4ccccc4c3C(=O)N2)on1 [Example 711, (3′S,7′S,13′R)-13′-benzyl-3,3-difluoro-7′-isobutyl-6′,9′-dimethyl-N-(2-(3-methylisoxazol-5-yl)ethyl)-1′,5′,8′,11′-tetraoxo-2′,3′,4′,5′,6′,7′,8′,9′,11′,12′,13′,14′-dodecahydro-1′H-spiro[cyclobutane-1,10′-[1]oxa[4,7,10,14]tetraazacycloheptadecino[17,16-c]quinoline]-3′-carboxamide]
36 | 410 | Cc1cc(CCNC(=O)[C@@H]2CC(=O)N(C)[C@@H](CC(C)C)C(=O)N(C)[C@H](COCc3ccccc3)C(=O)N[C@H](Cc3ccccc3)COc3ccc4ccccc4c3C(=O)N2)on1 [Example 714, (3S,7S,10R,13R)-13-benzyl-10-((benzyloxy)methyl)-7-isobutyl-6,9-dimethyl-N-(2-(3-methylisoxazol-5-yl)ethyl)-1,5,8,11-tetraoxo-1,2,3,4,5,6,7,8,9,10,11,12,13,14-tetradecahydronaphtho[1,2-p][1]oxa[4,7,10,14]tetraazacycloheptadecine-3-carboxamide]
144 | 313 | Cc1cc(CCNC(=O)[C@@H]2CC(=O)N(C)[C@@H](CC(C)C)C(=O)N(C)[C@@H](COCc3ccccc3)C(=O)N[C@H](Cc3ccccc3)COc3ccc4ccccc4c3C(=O)N2)on1 [Example 716, (3S,7S,10S,13R)-13-benzyl-10-((benzyloxy)methyl)-7-isobutyl-6,9-dimethyl-N-(2-(3-methylisoxazol-5-yl)ethyl)-1,5,8,11-tetraoxo-1,2,3,4,5,6,7,8,9,10,11,12,13,14-tetradecahydronaphtho[1,2-p][1]oxa[4,7,10,14]tetraazacycloheptadecine-3-carboxamide]
142 | 328 | Cc1cc(CCNC(=O)[C@@H]2CC(=O)N(C)[C@@H](CC(C)C)C(=O)N(C)[C@H](C3CCCC3)C(=O)N[C@H](Cc3ccccc3)COc3cnc4ccc(F)cc4c3C(=O)N2)on1 [Example 721, (3S,7S,10R,13R)-13-benzyl-10-cyclopentyl-20-fluoro-7-isobutyl-6,9-dimethyl-N-(2-(3-methylisoxazol-5-yl)ethyl)-1,5,8,11-tetraoxo-1,2,3,4,5,6,7,8,9,10,11,12,13,14-tetradecahydro-[1]oxa[4,7,10,14]tetraazacycloheptadecino[17,16-c]quinoline-3-carboxamide]
101 | 347 | Cc1cc(CCNC(=O)[C@@H]2CC(=O)N(C)[C@@H](CC(C)C)C(=O)N(C)[C@H](Cc3ccccc3)C(=O)N[C@H](Cc3ccccc3)COc3cnc4ccc(F)cc4c3C(=O)N2)on1 [Example 722, (3S,7S,10R,13R)-10,13-Dibenzyl-20-fluoro-7-isobutyl-6,9-dimethyl-N-(2-(3-methylisoxazol-5-yl)ethyl)-1,5,8,11-tetraoxo-1,2,3,4,5,6,7,8,9,10,11,12,13,14-tetradecahydro-[1]oxa[4,7,10,14]tetraazacycloheptadecino[17,16-c]quinoline-3-carboxamide]
93 | 345 | COc1nccc2c1C(=O)N[C@H](C(=O)NCCc1nc(C3CC3)no1)CC(=O)N(C)[C@@H](CC(C)C)C(=O)N(C)[C@@H](COCc1ccccc1)C(=O)N[C@H](Cc1ccccc1)CO2 [Example 724, (3R,6RS,9S,13S)-3-benzyl-6-((benzyloxy)methyl)-N-(2-(3-cyclopropyl-1,2,4-oxadiazol-5-yl)ethyl)-9-isobutyl-16-methoxy-7,10-dimethyl-5,8,11,15-tetraoxo-2,3,4,5,6,7,8,9,10,11,12,13,14,15-tetradecahydropyrido[3,4-p][1]oxa[4,7,10,14]tetraazacycloheptadecine-13-carboxamide]
1370 | 200 | Cc1cc(CCNC(=O)[C@@H]2CC(=O)N(C)[C@@H](CC(C)C)C(=O)N3CCNC[C@@H]3C(=O)N[C@H](Cc3ccccc3)COc3ccc4ccccc4c3C(=O)N2)on1 [Example 725, (4aR,7R,18S,22S)-7-Benzyl-22-isobutyl-21-methyl-N-(2-(3-methylisoxazol-5-yl)ethyl)-5,16,20,23-tetraoxo-2,3,4,4a,5,6,7,8,16,17,18,19,20,21,22,23-hexadecahydro-1H-naphtho[1,2-p]pyrazino[2,1-f][1]oxa[4,7,10,14]tetraazacycloheptadecine-18-carboxamide]
5050 | 138 | Cc1cc(CCNC(=O)[C@@H]2CC(=O)N(C)[C@@H](CC(C)C)C(=O)N3CCNC[C@@H]3C(=O)N[C@H](Cc3ccccc3)COc3cnc4ccccc4c3C(=O)N2)on1 [Example 727, (9S,13S,19aR,22R)-22-benzyl-13-isobutyl-12-methyl-N-(2-(3-methylisoxazol-5-yl)ethyl)-7,11,14,20-tetraoxo-7,8,9,10,11,12,13,14,17,18,19,19a,20,21,22,23-hexadecahydro-16H-pyrazino[2′,1′:6,7][1]oxa[4,7,10,14]tetraazacycloheptadecino[17,16-c]quinoline-9-carboxamide]

Compound | EC50 [nM] | Emax [%]
COc1cccc(CCNC(=O)[C@@H]2CC(=O)N(C)[C@@H](CC(C)C)C(=O)N(C)[C@@H](COCc3ccccc3)C(=O)N[C@H](Cc3ccccc3)COc3ccc4ccccc4c3C(=O)N2)c1 [Example 715, (3S,7S,10S,13R)-13-benzyl-10-((benzyloxy)methyl)-7-isobutyl-N-(3-methoxyphenethyl)-6,9-dimethyl-1,5,8,11-tetraoxo-1,2,3,4,5,6,7,8,9,10,11,12,13,14-tetradecahydronaphtho[1,2-p][1]oxa[4,7,10,14]tetraazacycloheptadecine-3-carboxamide] | 64 | 283
COc1cccc(CCNC(=O)[C@@H]2CC(=O)N(C)[C@@H](CC(C)C)C(=O)N3CCNC[C@@H]3C(=O)N[C@H](Cc3ccccc3)COc3ccc4ccccc4c3C(=O)N2)c1 [Example 726, (4aR,7R,18S,22S)-7-benzyl-22-isobutyl-N-(3-methoxyphenethyl)-21-methyl-5,16,20,23-tetraoxo-2,3,4,4a,5,6,7,8,16,17,18,19,20,21,22,23-hexadecahydro-1H-naphtho[1,2-p]pyrazino[2,1-f][1]oxa[4,7,10,14]tetraazacycloheptadecine-18-carboxamide] | 624 | 234
COc1cccc(CCNC(=O)[C@@H]2CC(=O)N(C)[C@@H](CC(C)C)C(=O)N3CCN(S(=O)(=O)c4ccccc4)C[C@@H]3C(=O)N[C@H](Cc3ccccc3)COc3ccc4ccccc4c3C(=O)N2)c1 [Example 729, (4aR,7R,18S,22S)-7-benzyl-22-isobutyl-N-(3-methoxyphenethyl)-21-methyl-5,16,20,23-tetraoxo-3-(phenylsulfonyl)-2,3,4,4a,5,6,7,8,16,17,18,19,20,21,22,23-hexadecahydro-1H-naphtho[1,2-p]pyrazino[2,1-f][1]oxa[4,7,10,14]tetraazacycloheptadecine-18-carboxamide] | 100 | 258
